# Source: patent publication US7138414B2, “Heterocyclically substituted benzoylureas, process for their preparation and their use as pharmaceuticals” (Sanofi-Aventis Deutschland GmbH, priority 2002, dated 2006)
# Biological target: T1, human glycogen phosphorylase a (Homo sapiens, UniProt P06737)
# T1 sequence (P06737 2-847 limits assumed): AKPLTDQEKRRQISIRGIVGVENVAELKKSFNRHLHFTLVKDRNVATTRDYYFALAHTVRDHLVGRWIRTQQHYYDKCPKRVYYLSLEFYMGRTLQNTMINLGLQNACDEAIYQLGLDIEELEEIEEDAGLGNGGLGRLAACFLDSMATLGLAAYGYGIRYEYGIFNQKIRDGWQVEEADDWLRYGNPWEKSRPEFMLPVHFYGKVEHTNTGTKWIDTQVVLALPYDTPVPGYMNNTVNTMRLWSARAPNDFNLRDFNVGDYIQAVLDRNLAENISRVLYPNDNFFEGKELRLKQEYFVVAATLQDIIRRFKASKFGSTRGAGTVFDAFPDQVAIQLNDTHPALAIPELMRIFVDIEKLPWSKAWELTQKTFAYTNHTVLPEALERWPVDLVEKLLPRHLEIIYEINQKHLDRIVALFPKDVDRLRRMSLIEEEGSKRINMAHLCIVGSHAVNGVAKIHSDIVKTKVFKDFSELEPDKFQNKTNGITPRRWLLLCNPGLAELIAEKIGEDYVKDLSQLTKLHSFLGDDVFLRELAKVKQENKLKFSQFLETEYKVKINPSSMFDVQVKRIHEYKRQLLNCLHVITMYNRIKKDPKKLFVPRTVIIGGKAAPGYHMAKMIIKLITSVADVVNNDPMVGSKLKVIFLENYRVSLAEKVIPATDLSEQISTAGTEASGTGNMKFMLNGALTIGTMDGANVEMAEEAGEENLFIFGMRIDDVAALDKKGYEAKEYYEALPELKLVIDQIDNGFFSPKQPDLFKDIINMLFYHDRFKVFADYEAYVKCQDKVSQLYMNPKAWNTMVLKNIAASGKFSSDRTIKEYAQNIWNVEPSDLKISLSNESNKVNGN
# Test: Glycogen phosphorylase a activity test (reverse direction, release of inorganic phosphate)
# Format: biochemical
# Details: 10 μM test substance; duplicate determinations; 40 min at room temperature
# Protocol: Glycogen Phophorylase a Activity Test
# All reactions were carried out as duplicate determinations in 96-well microtiter plates (half area plates, Costar No. 3696), and the change in absorption as a consequence of the formation of the reaction product was measured at the wavelength specified below in a Multiskan Ascent Elisa Reader (Lab Systems, Finland).
# In order to measure the GPa enzyme activity in the reverse direction, the conversion of glucose 1-phosphate to glycogen and inorganic phosphate was measured by the general method of Engers et al. (Engers H D, Shechosky S, Madsen N B, Can J Biochem 1970 July;48(7):746–754) with the following modifications: human glycogen phosphorylase a (for example containing 0.76 mg of protein/ml (Aventis Pharma Deutschland GmbH), dissolved in buffer solution E (25 mM β-glycerophosphate, pH 7.0, 1 mM EDTA and 1 mM dithiothreitol) was diluted to a concentration of 10 μg of protein/ml with buffer T (50 mM Hepes, pH 7.0, 100 mM KCl, 2.5 mM EDTA, 2.5 mM MgCl26H2O) and addition of 5 mg/ml of glycogen. Test substances were prepared as a 10 mM solution in DMSO and diluted to 50 μM with buffer solution T. To 10 μl of this solution were added 10 μl of 37.5 mM glucose dissolved in buffer solution T and 5 mg/ml of glycogen, and also 10 μl of a solution of human glycogen phosphorylase a (10 μg of protein/ml) and 20 μl of 2.5 mM glucose 1-phosphate. The base value of the activity of glycogen phosphorylase a in the absence of test substance was determined by adding 10 μl of buffer solution T (0.1% DMSO). The mixture was incubated at room temperature for 40 minutes and the released inorganic phosphate was determined by means of the general method of Drueckes et al. (al (Drueckes P, Schinzel R, Palm D, Anal Biochem 1995 Sep. 1;230(1):173–177) with the following modifications: 50 μl of a stop solution of 7.3 mM of ammonium molybdate, 10.9 mM of zinc acetate, 3.6% of ascorbic acid, 0.9% of SDS are added to 50 μl of the enzyme mixture. After 60 minutes of incubation at 45° C., the absorption was measured at 820 nm. To determine the background absorption, the stop solution was added immediately after the addition of the glucose 1-phosphate solution in a separate reaction. This test was carried out at a concentration of 10 μM of the test substance, in order to determine the respective inhibition of glycogen phosphorylase a by the test substance in vitro.
row,Structure (SMILES),% inhibition at 10 μM
1,"O=C(NC(=O)c1cc(F)c(F)cc1Cl)Nc1ccc(-n2cncn2)cc1F [Example 1c, 1-(2-chloro-4,5-difluorobenzoyl)-3-(2-fluoro-4-[1,2,4]triazol-1-ylphenyl)urea]",94%
2,"COc1cc(-c2nnc(C)[nH]2)ccc1NC(=O)NC(=O)c1ccc(F)cc1Cl [Example 2c, 1-(2-chloro-4-fluorobenzoyl)-3-[2-methoxy-4-(5-methyl-4H-[1,2,4]triazol-3-yl)-phenyl]urea]",94%
3,"COc1cc(-c2nnc(C)[nH]2)ccc1NC(=O)NC(=O)c1cc(F)c(F)cc1Cl [Example 3, 1-(2-chloro-4,5-difluorobenzoyl)-3-[2-methoxy-4-(5-methyl-4H-[1,2,4]triazol-3-yl)-phenyl]urea]",100%
4,"COc1cc(-c2nnc(CC(=O)O)[nH]2)ccc1NC(=O)NC(=O)c1ccc(F)cc1Cl [Example 4d, (5-(4-(3-(2-chloro-4-fluorobenzoyl)ureido)-3-methoxyphenyl)-4H-[1,2,4]triazol-3-yl)acetic acid]",90%
5,"Cc1nnc(-c2ccccc2NC(=O)NC(=O)c2cc(F)c(F)cc2Cl)n1-c1ccccc1C(=O)O [Example 5e, 2-(3-{2-[3-(2-chloro-4,5-difluorobenzoyl)ureido]phenyl}-5-methyl-[1,2,4]triazol-4-yl)benzoic acid]",9%
6,"Cc1nnc(-c2ccc(Cl)c(NC(=O)NC(=O)c3cc(F)c(F)cc3Cl)c2)[nH]1 [Example 6d, 1-(2-chloro-4,5-difluorobenzoyl)-3-[2-chloro-5-(5-methyl-4H-[1,2,4]triazol-3-yl)phenyl]urea]",100%
7,"O=C(NC(=O)c1cc(F)c(F)cc1Cl)Nc1cc(-c2nnc[nH]2)ccc1Cl [Example 6e, 1-(2-chloro-4,5-difluorobenzoyl)-3-[2-chloro-5-(4H-[1,2,4]triazol-3-yl)phenyl]urea]",100%
8,"O=C(NC(=O)c1ccc(F)cc1Cl)Nc1ccc(-c2nnn[nH]2)cc1Cl [Example 7c, 1-(2-chloro-4-fluorobenzoyl)-3-[2-chloro-4-(1H-tetrazol-5-yl)phenyl]urea]",100%
9,"O=C(NC(=O)c1cc(F)c(F)cc1Cl)Nc1ccc(-c2nnn[nH]2)cc1Cl [Example 7d, 1-(2-chloro-4,5-difluorobenzoyl)-3-[2-chloro-4-(1H-tetrazol-5-yl)phenyl)urea]",100%
10,"O=C(NC(=O)c1ccc(F)cc1Cl)Nc1ccc(-c2nnn[nH]2)cc1OC(F)(F)F [Example 7e, 1-(2-chloro-4-fluorobenzoyl)-3-[4-(1H-tetrazol-5-yl)-2-trifluoromethoxyphenyl]-urea]",100%
11,O=C(NC(=O)c1cc(F)c(F)cc1Cl)Nc1ccc(-c2nnn[nH]2)cc1OC(F)(F)F [Example 7f],100%
12,"COc1cc(-c2nnc(O)o2)ccc1NC(=O)NC(=O)c1ccc(F)cc1Cl [Example 8c, 1-(2-chloro-4-fluorobenzoyl)-3-[4-(5-hydroxy-[1,3,4]oxadiazol-2-yl)-2-methoxyphenyl]urea]",96%
13,"COc1nn(-c2ccc(NC(=O)NC(=O)c3ccc(F)cc3Cl)c(OC)c2)c(=O)o1 [Example 9e, 1-(2-chloro-4-fluorobenzoyl)-3-(2-methoxy-4-(5-methoxy-2-oxo-3H-[1,3,4]-oxadiazol-3-yl)phenyl)urea]",20%
14,"Cc1nnc(-c2ccc(NC(=O)NC(=O)c3ccc(F)cc3Cl)c(Cl)c2)o1 [Example 9g, 1-(2-chloro-4-fluorobenzoyl)-3-[2-chloro-4-(5-methyl-[1,3,4]oxadiazol-2-yl)phenyl]urea]",79%
15,"Nc1nnc(-c2ccccc2NC(=O)NC(=O)c2cc(F)c(F)cc2Cl)o1 [Example 10c, 1-[2-(5-amino-[1,3,4]oxadiazol-2-yl)phenyl]-3-(2-chloro-4,5-difluorobenzoyl)urea]",100%
16,"O=C(NC(=O)c1cc(F)c(F)cc1Cl)Nc1ccc(-c2noc(=O)[nH]2)cc1OC(F)(F)F [Example 11d, 1-(2-chloro-4,5-difluorobenzoyl)-3-[4-(5-oxo-4,5-dihydro-[1,2,4]oxadiazol-3-yl)-2-trifluoromethoxyphenyl]urea]",100%

row,Structure (SMILES),% inhibition at 10 μM
1,"Cc1cc(=O)n(-c2ccc(NC(=O)NC(=O)c3ccc(F)cc3Cl)c(C)c2)[nH]1 [Example 12c, 1-(2-chloro-4-fluorobenzoyl)-3-[2-methyl-4-(3-methyl-5-oxo-2,5-dihydropyrazol-1-yl)phenyl]urea]",85%
2,"O=C(NC(=O)c1cc(F)c(F)cc1Cl)Nc1ccccc1-c1nc2ccccc2[nH]1 [Example 13a, 1-[2-(1H-benzoimidazol-2-yl)phenyl]-3-(2-chloro-4,5-difluorobenzoyl)urea]",48%
3,"Cc1nnc(-c2ccc(Cl)c(NC(=O)NC(=O)c3cc(F)c(F)cc3Cl)c2)[nH]c1=O [Example 14e, 1-(2-chloro-4,5-difluorobenzoyl)-3-[2-chloro-5-(6-methyl-5-oxo-4,5-dihydro-[1,2,4]triazin-3-yl)phenyl]urea]",97%
4,"Cc1nnc(-c2ccc(Cl)c(NC(=O)NC(=O)c3cc(F)c(F)cc3Cl)c2)nc1C [Example 14f, 1-(2-chloro-4,5-difluorobenzoyl)-3-[2-chloro-5-(5,6-dimethyl-[1,2,4]triazin-3-yl)phenyl]urea]",100%
5,NC(=O)C1CCCN(c2ccc(F)cc2NC(=O)NC(=O)c2ccc(F)cc2Cl)C1 (stereo not shown) [Example 19],1.0%
6,O=C(NC(=O)c1ccc(F)cc1Cl)Nc1cc(F)ccc1N1CCC(C(=O)O)CC1 [Example 20],0.04%
7,CS(=O)(=O)c1ccc(N2CCCC(C(=O)O)C2)c(NC(=O)NC(=O)c2cc(F)c(F)cc2Cl)c1 (stereo not shown) [Example 21],0.3%
8,CS(=O)(=O)c1ccc(N2CCCC(C(=O)O)C2)c(NC(=O)NC(=O)c2ccc(F)cc2Cl)c1 (stereo not shown) [Example 22],1.1%
9,O=C(NC(=O)c1cc(F)c(F)cc1Cl)Nc1cc(C(F)(F)F)ccc1N1CCCC(C(=O)O)C1 (stereo not shown) [Example 23],0.03%
10,O=C(NC(=O)c1ccc(F)cc1Cl)Nc1cc(C(F)(F)F)ccc1N1CCCC(C(=O)O)C1 (stereo not shown) [Example 24],0.09%
11,Cc1ccc(NC(=O)NC(=O)c2ccc(F)cc2Cl)c(N2CCCC(C(=O)O)C2)c1 (stereo not shown) [Example 25],0.06%
12,Cc1ccc(NC(=O)NC(=O)c2cc(F)c(F)cc2Cl)c(N2CCCC(C(=O)O)C2)c1 (stereo not shown) [Example 26],0.04%
13,Cc1ccc(N2CCCC(C(=O)O)C2)c(NC(=O)NC(=O)c2ccc(F)cc2Cl)c1 (stereo not shown) [Example 28],0.04%
14,O=C(NC(=O)c1ccc(F)cc1Cl)Nc1cc(Cl)ccc1N1CCCC(C(=O)O)C1 (stereo not shown) [Example 32],0.03%
15,COC(=O)c1ccc(N2CCCC(C(=O)O)C2)c(NC(=O)NC(=O)c2cc(F)c(F)cc2Cl)c1 (stereo not shown) [Example 33],1.0%
